Measured values reported in US12661348B2, “Systemic formulation of a pyridinone derivate for TG2-related diseases” (Dr. Falk Pharma GmbH, priority 2020, dated 2026).

Key:
[1] = target: T1, TG2 (Mus musculus, UniProt P21981); assay: Immune-histochemical localisation of the complex of compound and TG2 in kidney tissue of UUO-mice; format: in vivo, C57BL/6-mouse; settings: oral, different dosages, compound-specific antibody
T1 construct: The immune-histochemical localisation of the complex of compound of formula (I) and TG2 in the kidney tissue; from tissue; host or cells: kidney tissue of UUO C57BL/6 mice
T1 sequence (P21981 1-686): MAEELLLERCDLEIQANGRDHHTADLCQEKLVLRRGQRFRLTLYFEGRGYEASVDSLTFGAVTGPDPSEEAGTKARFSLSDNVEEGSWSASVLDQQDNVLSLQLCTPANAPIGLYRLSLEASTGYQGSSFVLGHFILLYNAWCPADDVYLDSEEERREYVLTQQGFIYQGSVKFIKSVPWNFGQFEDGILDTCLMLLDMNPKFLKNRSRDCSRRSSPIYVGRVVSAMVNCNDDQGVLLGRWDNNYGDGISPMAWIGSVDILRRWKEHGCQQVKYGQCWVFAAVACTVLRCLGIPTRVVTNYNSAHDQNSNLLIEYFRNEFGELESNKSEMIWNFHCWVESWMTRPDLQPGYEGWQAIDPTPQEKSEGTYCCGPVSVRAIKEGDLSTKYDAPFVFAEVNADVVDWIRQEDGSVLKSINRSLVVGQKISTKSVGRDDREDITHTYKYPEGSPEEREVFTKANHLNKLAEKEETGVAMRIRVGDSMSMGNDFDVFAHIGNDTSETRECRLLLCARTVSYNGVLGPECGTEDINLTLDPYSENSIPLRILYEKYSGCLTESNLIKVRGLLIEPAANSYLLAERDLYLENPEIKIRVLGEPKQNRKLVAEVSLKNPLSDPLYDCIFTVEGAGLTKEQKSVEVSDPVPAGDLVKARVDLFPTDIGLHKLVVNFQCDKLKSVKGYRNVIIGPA
Description: Groups of 8 UUO-mice were treated directly after ligation of the ureter over a time period of two weeks with three different dosages of said compound: 100 mg/kg body weight, 300 mg/kg body weight, and 1000 mg/kg body weight. The daily dosage was administered orally as a suspension at intervals of 8 hours. In a control group, the UUO-mice were treated in same way but merely with the vehicle methyl cellulose. After the end of the treatment, the histopathological investigation of the kidney tissue as well as the determination of the amount of hydroxyproline in the kidney was performed. Furthermore, an immune-histochemical localisation of the complex of (S,E)-methyl-7-(1-(2-(2-ethylbutylamino)-2-oxoethyl)-2-oxo-1,2-dihydro-pyridin-3-ylamino)-6-(1-methyl-1H-imidazole-5-carboxamido)-7-oxohept-2-enoate and TG2 by means of (S,E)-methyl-7-(1-(2-(2-ethylbutylamino)-2-oxoethyl)-2-oxo-1,2-dihydro-pyridin-3-ylamino)-6-(1-methyl-1H-imidazole-5-carboxamido)-7-oxohept-2-enoate-specific antibody was carried out.

[2] = Pharmacokinetic in the C57BL/6-mouse; format: in vivo; settings: oral suspension
Description: The study serves to describe the pharmacokinetics of compound of formula (I) in the C57BL/6-mouse. The dosage was analogous to the dosage in the STAM-model (example 3) or in the UUO-model (example 2) in order to ensure the estimation of the systemic exposition in these models and to correlate the pharmacokinetic data with the efficacy data.
Groups of 12 C57BL/6-mice were treated with three different dosages of compound of formula (I) over a time period of 7 days: 100 mg/kg body weight, 300 mg/kg body weight, and 1000 mg/kg body weight. The daily dosage was administered orally as a suspension in two parts at intervals of 8 hours. On day 7 of treatment three different blood samples per animal were collected. The time points in the group were distributed in such a way that the 24 h-profile was covered with in total 12 different time points (3 animals per time point).
The determination of compound of formula (I) in the blood plasma was performed by means of a previously validated HLPC-MS/MS method.

[3] = tested on: STAM-model in the C57BL/6-mouse; assay: Stelic animal model (STAM-model) for non-alcoholic steatohepatitis; format: in vivo
Description: The anti-fibrotic effect of compound of formula (I) in the liver was investigated in a STAM-model for non-alcoholic steatohepatitis. This model bases on the induction of a chronical fibrotic inflammation of the liver by means of the combination of a chemical noxin (Streptozotocin) and a fat-containing diet in the C57BL/6-mouse. The pathology is similar to the described NASH in human.
Groups of 8 STAM-mice were treated directly over a time period of two weeks with three different dosages of said compound: 100 mg/kg body weight, 300 mg/kg body weight, and 1000 mg/kg body weight. The daily dosage was administered orally as a suspension in two parts at intervals of 8 hours. In a control group, the STAM-mice were treated in same way but merely with the vehicle methyl cellulose. After the end of the treatment, a measurement of the biochemical parameter in the Plasma and after dissection of the animals a histopathological investigation for the liver, the determination of the fat content of the liver as well as the determination of the expression of inflammation and fibrosis marker was performed.

For `CCC(CC)CNC(=O)Cn1cccc(NC(=O)[C@H](CC/C=C/C(=O)OC)NC(=O)c2cncn2C)c1=O` [compound of formula (I), (S,E)-methyl-7-(1-(2-(2-ethylbutylamino)-2-oxoethyl)-2-oxo-1,2-dihydro-pyridin-3-ylamino)-6-(1-methyl-1H-imidazole-5-carboxamido)-7-oxohept-2-enoate], the “immune-histochemical localisation of the complex of compound and TG2 in the kidney tissue” value [1] was “reach the target site and inhibits the target molecule”, the “bioavailability in the mouse model” value [2] was “measurable” and the liver histology ([3]; 100, 300, 1000 mg/kg body weight daily, oral suspension in two parts, two weeks) was “significant, dosage dependent improvement”. The “fibrotic area in the liver” value ([3]; 100, 300, 1000 mg/kg, significant in the middle and high dosage group) was “marked, dosage dependent reduction”, the liver inflammation ([3]; STAM mice) was “dose-dependent and significant reduction” and the “fat content in the liver” value ([3]; STAM-mice, oral, two weeks) was “no influence”. For the same molecule, the “reduction of the fibrosis compared with positive control Telmisartan” value ([3]; high dosage group, comparison with historical data) was “lay in the area of Telmisartan” and the “NAFLD Activity Score (NAS)” value ([3]; middle and high dosage group (300, 1000 mg/kg), mainly reduction of inflammation and ballooning) was “reduced in the middle and high dosage group”.
